# Results taken from ChEMBL document CHEMBL3507680, “University of Dundee, Gates Library screen for HepG2 cell viability”.
# Assay: Human HepG2 cell viability assay in 384 well format
# Type: toxicity, cell-based
# Parameters: dose 125 nL, time 70.5 hour; cytotoxicity at 70.5 h: concentration not given beside the values
# Conditions: HepG2 cells, read-out: Inhibition
row,SMILES,cytotoxicity at 70.5 h
1,CCc1nn(C)c(CC)c1CNC(=O)Nc1cccc2c1CCN2C,-0.865%
2,c1ncn(Cc2nnc(C3CCN(CC4CC4)CC3)n2C2CC2)n1,-15.3%
3,Cc1cccc(-n2cc(C(=O)N3CCCC(n4ccnc4)C3)nn2)c1 (stereo unspecified),15.2%
4,CC(=O)N(Cc1ncc(C(C)C)o1)C1CCN(Cc2ccno2)C1 (stereo unspecified),1.29%
5,Cn1c2ccc(F)cc2c2ncn(CCN3CCOCC3)c(=O)c21,17.4%
6,CC(C)N(C)C(=O)C1=NOC2(CCN(C(=O)c3ccccn3)C2)C1 (stereo unspecified),-9.35%
7,Cn1cnnc1C1CCCN(C(=O)c2n[nH]c3ccccc23)C1 (stereo unspecified),4.38%
8,CC(C)n1nnc(CC(=O)NCC2(c3ccccc3F)CCOCC2)n1,-8.63%
9,O=C(O)c1cccnc1N1CCN(Cc2ccc(F)cc2)C(CCO)C1 (stereo unspecified),22.4%
10,O=C(CN1C(=O)c2ccccc2CS1(=O)=O)c1ccccc1,-6.1%
11,COCc1cncc2c1CCN(Cc1ccccn1)C2,-0.455%
12,CC(C)OCCCNC(=O)CN1CCN(c2nccs2)C(C)C1 (stereo unspecified),35.5%
13,CC(C)n1nccc1C(=O)N1CCC(c2nnsc2S(C)(=O)=O)CC1,-6.33%
14,Cc1c(C(=O)N2CCCC(C(=O)c3nccn3C)C2)c[nH]c(=O)c1C#N (stereo unspecified),-7.06%
15,COc1nccnc1N1CCN(Cc2cccc(F)c2)C(=O)C1,16.1%
16,Cc1cc(C(=O)O)ccc1NS(=O)(=O)c1c(C)nn(C(C)C)c1C,-5.01%
17,O=C(CNCCn1cccn1)NCC1(c2ccccc2)CCOCC1,-7.33%
18,O=C(NCCNc1ncccn1)c1ccc(Br)cc1,-15.1%
19,CN(C)C(=O)CN1C[C@@H]2OCCN(c3ncc(F)cn3)[C@@H]2C1,0.597%
20,CC(C)c1noc(CCC(=O)NC(C)c2ccccn2)n1 (stereo unspecified),-1.62%
21,CN1[C@@H](c2ccccc2)[C@@H](C(=O)NCc2ccccn2)C[C@@]1(C)C(=O)O,23%
22,CS(=O)(=O)c1nccn1Cc1ccncc1,-4.41%
23,O=c1c2cccc(C(F)(F)F)c2ncn1C1CCNC1 (stereo unspecified),-13.6%
24,CN(C)C(=O)c1cc2ncc(C(=O)NC3CCCC3)cc2n1C,-0.145%

row,SMILES,cytotoxicity at 70.5 h
1,O=c1ccc2c(n1CC1CC1)CCC(NCc1cccs1)C2 (stereo unspecified),-10.4%
2,CC1CCN(c2nccn3c(=O)[nH]nc23)CC1,-3.79%
3,COCCOC(=O)N1CC2=CC(C)(C)COc3ccc(OC)c(c32)C1,-1.64%
4,CC(C)NC(=O)N1Cc2nccn2CC(CN2CCCC2)C1 (stereo unspecified),-6.64%
5,COc1ccc(C2CC(=O)c3c(O)cc(O)cc3O2)cc1O (stereo unspecified),-9.21%
6,Cc1nc2c(c(NC3CC3)n1)CCN(C(=O)C(C)(C)O)CC2,2.5%
7,CC(C)c1ccc(O)c(C(=O)N2CCN(Cc3cscn3)CC2)c1,-15.1%
8,O=C(Nc1cccc(F)c1)C1=NOC2(CCNCC2)C1,-4.38%
9,COc1cc(C)nc(N2CCN(C(=O)CN(C)C3CC3)CC2)n1,-4.51%
10,Cc1cc(F)c(S(=O)(=O)NCc2ccnc(N(C)C)n2)cc1F,29.1%
11,O=C(CO)N1CCC(c2cncc(-c3cccc(Cl)c3)n2)CC1,-3.18%
12,OCCn1nccc1C1CCN(CCOc2ccc(Cl)cc2)CC1,-1.15%
13,Cc1noc(C)c1CNC(=O)N1CCC(CO)CC1,-3.59%
14,CC(C)CC(=O)N1CC[C@@H]2CN(Cc3cccnc3)S(=O)(=O)[C@@H]2CC1,-4.78%
15,CSCc1cccc(S(=O)(=O)NCc2cnn(C)c2C)c1,-2.3%
16,O=S(=O)(c1ccccc1)N1CCN(CCn2ccnc2)CC1,1.34%
17,NC(=O)c1nnn(-c2ccc(Br)cc2)n1,33.2%
18,Cc1noc2ncc(S(=O)(=O)Nc3cc(CC(C)(C)C)[nH]n3)cc12,3.8%
19,Cc1n[nH]c(=O)c2c(NC(=O)CN3CCOC(C)C3)oc(C)c12 (stereo unspecified),12.5%
20,Cc1cc(C2CCCN(CCNS(=O)(=O)c3ccccc3)C2)n[nH]1 (stereo unspecified),24.5%
21,Cc1cc(NC(=O)Cn2ccc(=O)c3ccccc32)[nH]n1,-3.31%
22,Cc1cc(C(=O)N[C@H]2CN(CCO)C[C@@H]2C2CC2)sc1C,-3.28%
23,Cc1nc(NCCC23CCCN2CCC3)cc(C2CCCNC2)n1 (stereo unspecified),-3.41%
24,c1cc(C2CCN(c3cnccn3)CC2)ccn1,17.3%

row,SMILES,cytotoxicity at 70.5 h
1,COCC1(C(=O)N2CCC(c3nccn3CC3CC3)CC2)CCC1,2.4%
2,O[C@H]1CN(Cc2cccc(C(F)(F)F)c2)CC[C@@]12CCCO2,15.6%
3,CC(C)c1nc2cc(NC(=O)c3n[nH]c4c3CCC4)ccc2n1C,-9.08%
4,CCc1cnccc1C(=O)NC1CCN(Cc2ccccc2F)CC1,-6.35%
5,Cc1csc(CN2CCC[C@]3(C[C@@H](OCC4CC4)CO3)C2)n1,24.4%
6,O=C(c1ccoc1)N1CCC(NCc2ccccc2Cl)CC1,-8.33%
7,Cn1ccnc(Nc2ccc3c(c2)CCN3C(=O)c2cccnc2)c1=O,-11.5%
8,CCN(CC)C(=O)CNC(=O)c1c[nH]c2ccc(OC)cc12,3.81%
9,CC(C)Cc1cc(CNC(=O)C2CCCN(C(=O)N(C)C)C2)no1 (stereo unspecified),-2.31%
10,Cn1ccnc1C(NCc1csc(Br)c1)c1ccccc1 (stereo unspecified),-1.31%
11,CC(C)(C)OC(=O)NCC(=O)NCc1ccc(Cl)s1,-0.913%
12,O=C(CO)N1C[C@H]2CN(Cc3cccc(F)c3)C(=O)[C@H]2C1,-5.34%
13,CCCNC(=O)c1sccc1N(C)S(=O)(=O)c1ccc(Cl)cc1,20.9%
14,CCOC(C)c1noc(CN2CCN(Cc3cccc(F)c3)CC2)n1 (stereo unspecified),-7.41%
15,CN(C)C[C@]12COC[C@H]1CN(C(=O)Cc1ccc3c(c1)OCO3)C2,-9.79%
16,CN(C)C(=O)CN1CCc2ncnc(C3CC3)c2CC1,2.76%
17,CSC(C)C(=O)N1CCN(CC(C)(C)O)CC1 (stereo unspecified),-14%
18,CN1CCCC1c1cncc(C(=O)NCc2ccccc2)n1 (stereo unspecified),-2.59%
19,CCn1cnnc1CNS(=O)(=O)N1CCCC1c1ccco1 (stereo unspecified),-9.43%
20,CN(CC(=O)NC(N)=O)CC1(c2ccc(Br)cc2)CC1,-1.35%
21,CCOc1ccc(CN(C)C2CCN(c3cc(C)nn3C)C2=O)cc1 (stereo unspecified),19.7%
22,Cc1nn(C)c(N(C)C)c1CNC(C)COc1ccc(F)cc1F (stereo unspecified),-8.01%
23,Cn1c(CNCC2CCCN2c2cccnn2)nc2ccccc21 (stereo unspecified),-1.26%
24,Cc1ccc(-c2cnnc(N3CCCC3c3nonc3C)n2)o1 (stereo unspecified),-3.66%

row,SMILES,cytotoxicity at 70.5 h
1,Cn1cc(C(=O)Nc2cccc(F)c2)ccc1=O,0.823%
2,CN1CCCC1c1cccc(Cc2ccc(F)cc2)n1 (stereo unspecified),17%
3,O=C(c1cccc(N2CCCC2=O)c1)N1CCCC(n2cncn2)C1 (stereo unspecified),-8.04%
4,CC(C)c1ccc(OCCC(=O)N2CCC(C(=O)N(C)C)CC2)cc1,-3.99%
5,CCN1CCN(CC(O)c2ccc(F)cc2)CC1 (stereo unspecified),-14.7%
6,CC(SCc1cc(Br)cc2cccnc12)C(N)=O (stereo unspecified),-16%
7,O=C(CCc1nc(C2CC2)no1)c1ccc(F)c(F)c1,-17.2%
8,CC1CCc2sc(C(=O)Nc3cnn(C)c3)cc2C1 (stereo unspecified),-2.28%
9,O=C(Cc1cccc2cccnc12)N1CCCN(c2cccnn2)CC1,-11%
10,COc1cccc(CNC(=O)c2ccccc2-n2cnc(CN)c2)c1,17%
11,Cc1cc(C(=O)NCc2ccco2)nn1C,-11.3%
12,O=C1CCCN1Cc1nnn2c1CN(c1ncccn1)CCC2,-9.38%
13,COc1ccc(Br)cc1SCCS(C)(=O)=O,-4.19%
14,Cc1n[nH]cc1C(=O)N1CCCC1c1cc[nH]n1 (stereo unspecified),-5.51%
15,O=C(CCn1cc(Cl)cn1)N1CCC2(CC1)OCCCC2O (stereo unspecified),12%
16,CN1CCN(CC2(O)CCCN(C(=O)Cc3cccc(O)c3)CC2)CC1 (stereo unspecified),-12.4%
17,Cc1cc(CN(C)CC2CCCCC2)no1,-2%
18,Cc1nc(CN2CCOC(c3nc(C(C)C)n[nH]3)C2)oc1C (stereo unspecified),6.2%
19,Cc1noc(C2CCCN(C(=O)c3cncc(Br)c3)C2)n1 (stereo unspecified),-10.8%
20,COc1ccc(CC(=O)N2CCCC(c3cc(C)[nH]n3)C2)cc1 (stereo unspecified),-3.16%
21,Cn1cc(CN2CCC(c3ccncc3)CC2)cn1,-9.54%
22,O=C(CCCc1ccccn1)N1CCOc2ccc(F)cc21,1.36%
23,CC(=O)N1CCCN(C(C(=O)O)c2ccccc2OC(F)(F)F)CC1 (stereo unspecified),-7.53%
24,CN1CCN(c2nsc(-c3ccccc3)c2C#N)CC1,-2.35%

row,SMILES,cytotoxicity at 70.5 h
1,CNC(=O)C1CCCN1c1nc(C)c2ccccc2n1 (stereo unspecified),-16.3%
2,COCC(NC(=O)NCc1sc(C)nc1C)c1ccco1 (stereo unspecified),7.86%
3,CCOc1ccc2nc(CN3CCC(CNC(C)=O)C3)ccc2c1 (stereo unspecified),1.6%
4,CCn1nc(C)c2c1cnn2CCNS(C)(=O)=O,-6.31%
5,CCNC(=O)NCc1cnn(-c2ccc(F)cc2F)c1,-10.2%
6,O=S(=O)(c1cccc(F)c1)N1CCCCC1c1ccn[nH]1 (stereo unspecified),-7.34%
7,COCCN(Cc1ccoc1)S(=O)(=O)c1cccc(C(F)(F)F)c1,-13.5%
8,CC(C)n1nc(CNc2ncccn2)c2c1CN(C)CC2,-6%
9,CCC(NC(=O)c1cc(CC(C)C)nn1C)c1cc(C)ccn1 (stereo unspecified),-19.2%
10,Cc1ccccc1C(=O)N1CCC2(CC1)CC(c1cnn(C)c1)CO2 (stereo unspecified),-11.9%
11,CCCc1nc(CN2CCCCC2Cn2cncn2)cs1 (stereo unspecified),-7.91%
12,CCN1CCn2c(C)cnc2C12CCN(C(=O)NC)CC2,-6.2%
13,CCC(C)N1CCC2(CC1)CN(c1cncnc1)C(=O)CO2 (stereo unspecified),-15.3%
14,CN1CCN(C(=O)CCCc2ccccn2)c2ccc(F)cc21,14.3%
15,CC(C)c1noc(CCNC(=O)N2CCN(c3cccs3)CC2)n1,40.3%
16,Cc1noc([C@@]23CCO[C@@H]2CCN(C(=O)CN(C)C)C3)n1,-0.0937%
17,O=c1n(Cc2ccc(C(F)(F)F)cc2)nc2ncccn12,24.3%
18,Cc1cc(C)c(S(=O)(=O)Nc2ccccc2CC(F)(F)F)cc1C(=O)O,-8.62%
19,Cc1ccccc1CN1CCCN(CCN2CCOC2=O)CC1,-1.61%
20,Nc1nc(Nc2ccccc2)cc(N2CCNCC2)n1,-3.76%
